Measured values taken from article PMC9671100 (RSC Advances, 2022).
Several values for one entry are separate records, joined by “and”; a condition that tells them apart may be missing. Equal entries are not always repeated.

What was measured:
BChE (from equine serum) = BChE (from equine serum) (Equus caballus, UniProt P81908); test: Anticholinesterase assay; type: biochemical; settings: for IC50: BChE IC50, IC50 ± SEM, Ellman method, 30 min incubation, triplicate
[1] = ABTS radical scavenging activity; settings: for ABTS EC50: 732 nm, 6 min; for Fold = IC50 of ascorbic acid/IC50 of compounds 5a–p: ratio of the ABTS values relative to ascorbic acid
[2] = biological target: AChE (from Electrophorus electricus) (Electrophorus electricus, UniProt O42275); test: Anticholinesterase assay; type: biochemical
AChE (from Electrophorus electricus), sequence (O42275 24-633): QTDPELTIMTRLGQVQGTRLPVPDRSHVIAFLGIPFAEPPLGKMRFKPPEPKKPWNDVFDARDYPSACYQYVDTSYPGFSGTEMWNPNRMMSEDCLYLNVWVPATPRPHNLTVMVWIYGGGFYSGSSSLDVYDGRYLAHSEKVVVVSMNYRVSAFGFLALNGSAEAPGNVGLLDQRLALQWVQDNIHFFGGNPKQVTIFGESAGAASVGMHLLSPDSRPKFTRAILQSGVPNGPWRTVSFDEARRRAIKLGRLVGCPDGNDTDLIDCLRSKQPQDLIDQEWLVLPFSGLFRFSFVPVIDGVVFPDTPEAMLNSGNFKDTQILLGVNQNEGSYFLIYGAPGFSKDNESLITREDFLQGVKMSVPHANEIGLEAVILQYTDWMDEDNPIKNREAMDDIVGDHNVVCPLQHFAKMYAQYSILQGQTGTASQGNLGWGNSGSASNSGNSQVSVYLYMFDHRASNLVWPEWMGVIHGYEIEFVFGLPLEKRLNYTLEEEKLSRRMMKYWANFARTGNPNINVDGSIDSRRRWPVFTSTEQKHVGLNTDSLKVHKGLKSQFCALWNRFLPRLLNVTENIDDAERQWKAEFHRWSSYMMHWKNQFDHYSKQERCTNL

[3] = DPPH radical scavenging activity; settings: 517 nm, 5 min at room temperature

BChE (from equine serum), sequence (P81908 whole entry): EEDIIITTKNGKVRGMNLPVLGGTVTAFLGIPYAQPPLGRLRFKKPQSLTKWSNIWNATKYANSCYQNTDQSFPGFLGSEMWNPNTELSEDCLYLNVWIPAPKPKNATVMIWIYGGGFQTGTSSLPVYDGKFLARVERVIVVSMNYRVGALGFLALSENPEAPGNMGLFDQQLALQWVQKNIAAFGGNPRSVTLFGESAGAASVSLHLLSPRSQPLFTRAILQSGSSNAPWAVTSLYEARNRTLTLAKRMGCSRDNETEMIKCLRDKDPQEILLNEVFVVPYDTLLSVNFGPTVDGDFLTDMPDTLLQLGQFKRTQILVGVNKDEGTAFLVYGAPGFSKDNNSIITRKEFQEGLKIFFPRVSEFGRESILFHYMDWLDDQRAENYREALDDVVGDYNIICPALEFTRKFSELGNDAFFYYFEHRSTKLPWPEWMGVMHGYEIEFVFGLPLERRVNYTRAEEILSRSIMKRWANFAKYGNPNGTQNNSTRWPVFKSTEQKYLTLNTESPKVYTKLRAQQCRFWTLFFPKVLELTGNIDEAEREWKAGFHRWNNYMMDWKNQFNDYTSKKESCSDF

| SMILES | IC50 (BChE (from equine serum)) [µM] | ABTS EC50 [1] [µg/mL] | IC50 [2] [µM] | DPPH EC50 [3] [µg/mL] | Fold = IC50 of ascorbic acid/IC50 of compounds 5a–p [1] | times less potent than galantamine against BChE (BChE (from equine serum); IC50 ratio versus galantamine) |
| --- | --- | --- | --- | --- | --- | --- |
| COc1cc(-c2c(C#N)c(N)nc3c2CCc2nc4c(cc2-3)c(C)nn4-c2ccccc2)cc(OC)c1OC [5j, 2-Amino-10-methyl-8-phenyl-4-(3,4,5-trimethoxyphenyl)-6,8-dihydro-5H-pyrazolo[3,4-j][1,7]phenanthroline-3-carbonitrile] | ≥ 375 | >100 | 224.54 ± 0.018 | >100 |  |  |
| CCOc1nc2c(c(-c3ccccc3)c1C#N)CCc1nc3c(cc1-2)c(C)nn3-c1ccccc1 [5p, 2-Ethoxy-10-methyl-4,8-diphenyl-6,8-dihydro-5H-pyrazolo[3,4-j][1,7]phenanthroline-3-carbonitrile] | ≥ 375 | >100 | 329.67 ± 0.01 | >100 |  |  |
| Cc1nn(-c2ccccc2)c2nc3c(cc12)-c1nc(N)c(C#N)c(-c2ccc([N+](=O)[O-])cc2)c1CC3 [5e, 2-Amino-10-methyl-4-(4-nitrophenyl)-8-phenyl-6,8-dihydro-5H-pyrazolo[3,4-j][1,7]phenanthroline-3-carbonitrile] | ≥ 375 | 11.51 | 191.28 ± 0.015 | 26.71 | 2 and 2.40 |  |
| Cc1nn(-c2ccccc2)c2nc3c(cc12)-c1nc(N)c(C#N)c(-c2cc4ccccc4nc2Cl)c1CC3 [5f, 2-Amino-4-(2-chloroquinolin-3-yl)-10-methyl-8-phenyl-6,8-dihydro-5H-pyrazolo[3,4-j][1,7]phenanthroline-3-carbonitrile] | ≥ 375 | 3.10 | 135.33 ± 0.04 | >100 | 9 and 8.91 |  |
| Cc1nn(-c2ccccc2)c2nc3c(cc12)-c1nc(N)c(C#N)c(-c2ccc(O)cc2)c1CC3 [5g, 2-Amino-4-(4-hydroxyphenyl)-10-methyl-8-phenyl-6,8-dihydro-5H-pyrazolo[3,4-j][1,7]phenanthroline-3-carbonitrile] |  | <3 |  | >100 | more than nine times |  |
| Cc1ccc(-c2c(C#N)c(N)nc3c2CCc2nc4c(cc2-3)c(C)nn4-c2ccccc2)cc1 [5b, 2-Amino-10-methyl-8-phenyl-4-(p-tolyl)-6,8-dihydro-5H-pyrazolo[3,4-j][1,7]phenanthroline-3-carbonitrile] | > 847 | 98.77 |  | >100 | 0.28 |  |
| O=C1O[C@H]([C@@H](O)CO)C(O)=C1O [Ascorbic acid, reference compound] |  | 27.62 ± 3.5 |  | 1.5 ± 0.2 | 1 |  |
| Cc1nn(-c2ccccc2)c2nc3c(cc12)-c1nc(N)c(C#N)c(-c2ccc(Cl)cc2)c1CC3 [5d, 2-Amino-4-(4-chlorophenyl)-10-methyl-8-phenyl-6,8-dihydro-5H-pyrazolo[3,4-j][1,7]phenanthroline-3-carbonitrile] | > 810 | >100 |  | >100 |  |  |
| Cc1nn(-c2ccccc2)c2nc3c(cc12)-c1nc(N)c(C#N)c(-c2ccc(C#N)cc2)c1CC3 [5h, 2-Amino-4-(4-cyanophenyl)-10-methyl-8-phenyl-6,8-dihydro-5H-pyrazolo[3,4-j][1,7]phenanthroline-3-carbonitrile] | ≥ 375 | >100 | 85.48 ± 0.14 | >100 |  |  |
| Cc1nn(-c2ccccc2)c2nc3c(cc12)-c1nc(N)c(C#N)c(-c2ccc4c(c2)OCO4)c1CC3 [5l, 2-Amino-4-(benzo[d][1,3]dioxol-5-yl)-10-methyl-8-phenyl-6,8-dihydro-5H-pyrazolo[3,4-j][1,7]phenanthroline-3-carbonitrile] | 119 | >100 | 167.94 ± 0.04 | >100 |  | 15 |
| Cc1nn(-c2ccccc2)c2nc3c(cc12)-c1nc(N)c(C#N)c(-c2ccccc2)c1CC3 [5a, 2-Amino-10-methyl-4,8-diphenyl-6,8-dihydro-5H-pyrazolo[3,4-j][1,7]phenanthroline-3-carbonitrile] | > 875 | >100 | 259.87 ± 0.03 | >100 |  |  |
